{"source": "patent US9517265B2", "about": "“Methods for the prevention and/or treatment of memory impairment” (The Governing Council of the University of Toronto, priority 2010, dated 2016)", "key": {"[1]": {"experiment": "Core (rectal) temperature during anesthesia", "assay_type": "in vivo, mice", "experimental": "Mice were placed in the air-tight acrylic glass chamber for administration of the anesthetic; a rectal probe was inserted after the mice lost their righting reflex and rectal temperature was […] to measure temperature between 5 min and 1 h. The rectal probe was not inserted prior to the 5 min mark to ensure the mice were adequately anesthetized and not discomforted."}, "[2]": {"experiment": "Analysis of blood gases during isoflurane anesthesia", "assay_type": "in vivo, mice", "settings": "for pH: n = 6", "from_the_text": "A needle was carefully inserted into the heart and blood was extracted into a heparinized syringe. The collected blood was immediately placed on ice and transported to a blood gas analyzer (ABL 700 series, Radiometer, Copenhagen, Denmark)."}, "[3]": {"experiment": "Isoflurane concentration in brain tissue (gas chromatography) and in expired gas", "settings": "after removal from the chamber", "from_the_text": "Following a designated recovery time, mice were sacrificed by cervical dislocation. The brains were rapidly removed at room temperature and placed in a gas-tight syringe containing polytetrafluoroethylene beads. The whole brain was immediately crushed with two strokes of the plunger and the syringe was then sealed. […] The methods are similar to that described for measurement of inhaled anesthetics in blood.^26"}, "[4]": {"settings": "cited from earlier work"}, "[5]": {"experiment": "Balance beam and tail flick 1 h after isoflurane", "assay_type": "in vivo, mice", "settings": "1 h after isoflurane or vehicle", "experimental": "Mice were gently held by the scruff and allowed free movement of the tail. The tip of the tail was inserted to about 1 cm depth into a beaker of water (49° C.). The latency for the mouse to remove its tail from the water was recorded and used as an indication of nociception. […] Indicators of motor coordination and mobility include the time for the mice to spontaneously cross the beam, and the number of times the hindfoot slipped off the beam. Average values of three repetitions for each mouse were reported."}, "[6]": {"system": "α5GABAA receptors", "settings": "1 mg/kg intraperitoneal; cited from earlier work"}, "[7]": {"target": "T1, α5GABAARs (Mus musculus, UniProt P22723+Q8BHJ7)", "T1 sequence (Q8BHJ7 32-463 limits assumed)": "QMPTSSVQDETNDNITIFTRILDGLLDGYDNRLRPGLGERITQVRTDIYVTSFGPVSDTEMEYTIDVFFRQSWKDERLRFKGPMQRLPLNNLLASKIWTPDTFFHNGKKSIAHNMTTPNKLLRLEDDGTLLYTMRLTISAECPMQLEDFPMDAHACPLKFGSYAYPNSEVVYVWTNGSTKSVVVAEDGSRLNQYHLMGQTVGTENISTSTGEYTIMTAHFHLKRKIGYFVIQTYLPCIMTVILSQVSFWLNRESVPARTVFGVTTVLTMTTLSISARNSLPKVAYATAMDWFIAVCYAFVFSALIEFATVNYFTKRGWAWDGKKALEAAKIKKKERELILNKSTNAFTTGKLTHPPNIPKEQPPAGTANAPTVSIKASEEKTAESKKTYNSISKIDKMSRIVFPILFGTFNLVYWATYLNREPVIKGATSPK", "T1 sequence (P63080 26-473 partner)": "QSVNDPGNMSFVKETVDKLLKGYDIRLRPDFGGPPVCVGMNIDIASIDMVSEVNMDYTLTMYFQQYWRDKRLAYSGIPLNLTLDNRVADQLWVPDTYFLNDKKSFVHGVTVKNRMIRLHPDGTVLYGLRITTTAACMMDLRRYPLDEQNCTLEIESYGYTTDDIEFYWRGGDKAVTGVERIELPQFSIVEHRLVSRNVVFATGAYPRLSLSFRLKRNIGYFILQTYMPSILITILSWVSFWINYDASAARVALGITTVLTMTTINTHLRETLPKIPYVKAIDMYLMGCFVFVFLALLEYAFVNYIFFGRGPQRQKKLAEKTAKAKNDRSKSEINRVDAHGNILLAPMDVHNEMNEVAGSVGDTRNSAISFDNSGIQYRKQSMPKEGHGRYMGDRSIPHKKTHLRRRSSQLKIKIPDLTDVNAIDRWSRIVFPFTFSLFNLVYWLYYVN", "T1 sequence (P22723 39-474)": "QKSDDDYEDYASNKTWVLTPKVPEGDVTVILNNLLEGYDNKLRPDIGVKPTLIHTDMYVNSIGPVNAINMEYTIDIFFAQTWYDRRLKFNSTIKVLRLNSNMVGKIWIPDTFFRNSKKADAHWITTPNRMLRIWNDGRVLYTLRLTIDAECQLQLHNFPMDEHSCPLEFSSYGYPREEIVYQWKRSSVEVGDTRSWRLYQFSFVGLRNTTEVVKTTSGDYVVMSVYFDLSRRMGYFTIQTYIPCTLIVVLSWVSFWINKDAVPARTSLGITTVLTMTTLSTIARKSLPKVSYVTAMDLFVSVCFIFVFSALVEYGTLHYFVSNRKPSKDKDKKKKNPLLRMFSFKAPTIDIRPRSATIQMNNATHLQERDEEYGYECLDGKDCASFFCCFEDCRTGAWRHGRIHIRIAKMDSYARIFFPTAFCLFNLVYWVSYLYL", "experiment": "Fear conditioning after IL-1β or LPS injection", "assay_type": "in vivo, mice", "experimental": "Pavlovian fear-conditioning tasks were used for behavioral analysis^29. LPS (125 μg kg^−1, i.p., with physiological saline as the vehicle control) or IL-1β (1 μg kg^−1, i.p., with 0.1% bovine serum albumin as the vehicle control) was injected into male 3- to 4-month-old WT and Gabra5−/− mice 3 h before conditioning. The intensity of the electric footshock was 0.5 mA. For some mice, the inverse agonist L-655,708 (0.35 or 0.5 mg kg^−1, i.p.) or vehicle control (10% DMSO, i.p.) was injected 30 min before training. The movement of the mouse was monitored. The percentage of time that each mouse spent in a freezing position was determined using FreezeView software (Version 2.26, Actimetrics Inc, Wilmette, Ill., USA).\nWe have determined that IL-1β-induced impairment of contextual fear memory can be reversed by pharmacological inhibition of α5GABAA receptors by the inverse agonist MRK-016. Fear conditioning was performed 3 h after injection of IL-1β (1 μg kg^−1, i.p.) in both wild-type (WT) and α5GABAA receptor knock out (Gabra5−/−) mice. Mice were trained to associate a context (contextual fear) and a tone (cued fear) with an aversive electric footshock. 24 h after conditioning each mouse was placed in the training context, and contextual fear memory was measured as the percentage of time spent freezing. Cued fear memory was measured 48 h after training as the percentage of time spent freezing to the conditioned auditory tone in a novel context."}, "[8]": {"system": "α1, α2 and α3 subunit-containing GABAA receptors", "settings": "1 mg/kg intraperitoneal; cited from earlier work"}, "[9]": {"target": "T1, α5GABAARs", "experiment": "Tonic inhibitory current, whole cell voltage-clamp in cultured hippocampal neurons", "assay_type": "cell-based, mice", "parameters": "endogenous in cells; host or cells: primary embryonic mouse hippocampal neurons, alone or co-cultured with cortical microglia"}, "[10]": {"settings": "cited from earlier work", "remark": "listed apart in the source"}}, "note": "Entries after “also recorded” stand apart in the source; their conditions may differ."}
{"smiles": "FC(F)OC(Cl)C(F)(F)F", "note": "(stereo not shown) [isoflurane]", "values": [{"measurement": "rectal temperature", "setting": "[1]; 5 min after introduction into the anesthetic chamber", "value": "37.8±0.4", "unit": "°C"}, {"measurement": "rectal temperature", "setting": "[1]; 1 h after induction", "value": "37.8±0.4", "unit": "°C"}, {"measurement": "hypoxia (in words)", "setting": "[2]; isoflurane 1 MAC in 30% O2 for 1 h or 5 min", "value": "Hypoxia did not occur"}, {"measurement": "pCO2", "setting": "[2]; isoflurane 5 min", "value": "48.6 ± 2.02", "unit": "mmHg"}, {"measurement": "pO2", "setting": "[2]; isoflurane 5 min", "value": "142 ± 16", "unit": "mmHg"}, {"measurement": "pH", "setting": "[2]; isoflurane 5 min", "value": "7.28 ± 0.02"}, {"measurement": "pCO2", "setting": "[2]; isoflurane 60 min", "value": "54.2 ± 12.3", "unit": "mmHg"}, {"measurement": "pO2", "setting": "[2]; isoflurane 60 min", "value": "193 ± 31", "unit": "mmHg"}, {"measurement": "pH", "setting": "[2]; isoflurane 60 min", "value": "7.23 ± 0.08"}, {"measurement": "time until isoflurane in expired gas is undetectable", "setting": "[3]", "value": "≤ 7", "unit": "min"}, {"measurement": "fraction that had left the brain", "setting": "[4]; after 270 min of elimination following isoflurane 1.3% for 90 min", "value": 96, "unit": "%"}, {"measurement": "elimination, initial fast component", "setting": "[4]; humans", "value": 5, "unit": "min"}, {"measurement": "elimination, slower component", "setting": "[4]; humans", "value": 15, "unit": "min"}, {"measurement": "fraction metabolized", "setting": "[4]; in vivo", "value": "less than 0.2%"}, {"measurement": "fraction recovered in expired gas", "setting": "[4]; in vivo", "value": "~100", "unit": "%"}, {"measurement": "fraction eliminated from the brain", "setting": "[4]; within 270 min, laboratory animals", "value": 97, "unit": "%"}, {"measurement": "balance beam crossing times and foot slips (in words)", "setting": "[5]", "value": "No differences were observed between treatment groups"}, {"measurement": "latency to tail flick (in words)", "setting": "[5]", "value": "No differences were detected in the latency to tail flick"}]}
{"smiles": "CCOC(=O)c1ncn2c1[C@@H]1CCCN1C(=O)c1cc(OC)ccc1-2", "note": "[L-655,708]", "values": [{"measurement": "receptor occupancy of the α5GABAA receptor", "setting": "[6]", "value": 64, "unit": "%"}, {"measurement": "contextual fear memory, WT mice (in words)", "setting": "[7]; IL-1β 1 μg kg^−1 i.p. or LPS 125 μg kg^−1 i.p. 3 h before conditioning, inverse agonist co-administered", "value": "attenuated the IL-1β-induced contextual fear memory deficits in WT mice; also recorded: restored freezing scores for contextual fear memory to control values"}, {"measurement": "cued fear memory to a conditioned tone stimulus (in words)", "setting": "[7]; mouse, in vivo", "value": "did not affect freezing to a conditioned tone stimulus"}, {"measurement": "occupancy of α1, α2 and α3 subunit-containing GABAA receptors", "setting": "[8]", "value": 18, "unit": "%"}, {"measurement": "inhibition at 0.02 µM", "setting": "[9]; L-655,708 20 nM, n=11, read-out: inhibition of the IL-1β-enhanced tonic current", "value": 66.1, "unit": "%"}, {"measurement": "IL-1β-modulated tonic current", "setting": "[9]; L-655,708 20 nM, n=12", "value": "69.2±4.4 % of control"}, {"measurement": "effect on the tonic current (in words)", "setting": "[9]; cultured hippocampal neurons", "value": "the tonic current is selectively inhibited; also recorded: reverses enhancement of the tonic current by the inhaled anaesthetics isoflurane and desflurane; also recorded: reverses the sevoflurane-induced increase in tonic inhibitory conductance generated by GABAA receptors"}, {"measurement": "half-life", "setting": "[10]; rat, in vivo", "value": 30, "unit": "min"}, {"measurement": "time of peak", "setting": "[10]; rat, in vivo", "value": 0.25, "unit": "h"}, {"measurement": "brain versus plasma concentrations (in words)", "setting": "[10]; subcutaneous injection", "value": "concentrations in the brain mimic those in the plasma"}]}
